Results taken from US7541032B2, “Antigen uptake receptor for Candida albicans on dendritic cells” (priority 2002, dated 2009).

Key:
DC-SIGN [1] = molecular target: T1, DC-SIGN (Homo sapiens, UniProt Q9NNX6); test: Binding of FITC-labeled C. albicans to K562 transfectants expressing DC-SIGN (K-SIGN), flow cytometry; assay type: cell-based; details: for Inhibition of binding of C. albicans to K562 cells transfected with wild-type DC-SIGN (FIG. 1F): K562 wild-type DC-SIGN transfectants
T1 construct: expressed in transfected cells
T1 sequence (Q9NNX6 1-404): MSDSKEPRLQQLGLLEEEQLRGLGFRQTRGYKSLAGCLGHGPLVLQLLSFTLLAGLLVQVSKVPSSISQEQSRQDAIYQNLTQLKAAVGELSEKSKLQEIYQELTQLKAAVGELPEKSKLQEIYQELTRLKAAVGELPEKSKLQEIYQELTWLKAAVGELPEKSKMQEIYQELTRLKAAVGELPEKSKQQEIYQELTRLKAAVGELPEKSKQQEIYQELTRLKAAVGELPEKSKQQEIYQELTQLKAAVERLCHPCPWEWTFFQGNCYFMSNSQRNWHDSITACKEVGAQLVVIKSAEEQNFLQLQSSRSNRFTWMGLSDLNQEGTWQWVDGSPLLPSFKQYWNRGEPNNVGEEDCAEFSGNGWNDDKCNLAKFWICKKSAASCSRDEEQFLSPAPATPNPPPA
Protocol: (§1) Immature dendritic cells (imDC) were generated from human peripheral blood monocytes as described previously (Vissers et al., 2001). Briefly, monocytes were isolated by adherence to plastic and cultured in the presence of IL-4 (500 U/mL) and GM-CSF (800 U/mL) for 6-7 days. K562 transfectants either expressing DC-SIGN or ALCAM were generated by transfection of K562 cells with 10 μg of plasmid by electroporation as described previously (Geijtenbeek et al., 2000b; Nelissen et al., 2000). Positive cells were sorted several times to obtain stable transfectants with similar expression levels of DC-SIGN.
(§2) Labeling of Candida cells was performed as follows: viable or heat killed (60 minutes at 56° C. or 30 minutes at 100° C.) yeast cells were resuspended to 2×10^8/mL in 0.1 mg/mL FITC in 0.05 M carbonate-bicarbonate buffer (pH 9.5). After incubation for 15 minutes at room temperature in the dark, FITC-labeled Candida cells were washed twice in PBS containing 1% BSA (PBA buffer) and analyzed by flow cytometry.
(§3) DC or K562 transfected cells were stained with anti-CD45-APC prior to exposure to FITC labeled live or heat inactivated Candida. DC or K562 cells expressing DC-SIGN or ALCAM (control) were or were not preincubated for 10 minutes at room temperature with mannan (300 μg/mL), mannose (100 mM), facose (100 mM), EGTA (5 mM), or a mixture of AZN-D1 and AZN-D3 (20 μg/mL), in 20 mM Tris pH 8.0, containing 150 mM NaCl, 1 mM CaCl2, 2 mM MgCl2, and 1% BSA (TSA buffer) or, when EGTA was used, in PBS. Subsequently, FITC labeled Candida were resuspended to the appropriate concentrations either in TSA or PBS and added in various cell/C. albicans ratios. After incubation, cell-Candida conjugates were analyzed by flow cytometry, and the relative difference in mean fluorescence intensity of the double labeled events compared with that of control cells was calculated. Cells were labeled with anti-CD45APC to discriminate cells binding FITC-labeled yeast particles from yeast aggregates.
The erythroleukemic cell line K562 transfectants stably expressing DC-SIGN (K-SIGN) (Geijtenbeek et al., 2000a) were used to investigate the potential of C. albicans to bind DC-SIGN in the absence of any other known C. albicans, receptors. Binding to ICAM-3 fluorescent beads was used as a positive control for DC-SIGN function. […] The monoclonal antibodies AZN-D1 and AZN-L50 were used to detect DC-SIGN and ALCAM, respectively. The K562 transfectants stably express DC-SIGN and ALCAM, (FIGS. 1A-1 through 1A-3) with expression levels similar to that observed previously (Geijtenbeek et al., 2000a; Nelissen et al., 2000).
Transfectant cells were labeled with CD45APC to discriminate cells binding FITC labeled yeast from yeast aggregates. […]

DC-SIGN [2] = molecular target: T1, DC-SIGN; test: Binding of conidiae and hyphae of other Candida strains/species and Aspergillus fumigatus to K-SIGN cells; assay type: cell-based
Protocol: as §3
Further studies were performed as above but using other strains or species of yeast and also comparing binding of the conidiae versus binding of the hyphal form of the organism. […] These are clinical strains isolated from patients. It is seen that the conidiae or single-celled form of the yeast bind to DC-SIGN better than do the hyphae. […]

immature DC = test: Phagocytosis of FITC-labeled Candida by immature DC, confocal microscopy; assay type: cell-based, human; details: 60 minutes at 37° C.
Protocol: Immature DC (5×10^5) were incubated with unopsonized live FITC-labeled Candida cells (2.5×10^6) in a total volume of 500 μL at 37° C. in a water bath with orbital shaking at 150 rpm for various periods of time. At the end of the incubation period, the DC binding Candida are separated from unbound Candida by a Ficoll gradient.
The samples were then adhered on poly-L-lysine coated glass coverslips, fixed in 1% paraformaldehyde in PBS for 15 minutes at room temperature, and permeabilized in cold methanol for 5 minutes on ice. After a blocking step in PBS/3% BSA for 60 minutes at room temperature, cells were labeled with mAb (10 μg/mL in PBS/3% BSA) for 60 minutes at room temperature and subsequently incubated with Cy5-conjugated Goat-anti-Mouse F(ab′)2 fragments for 30 minutes at room temperature. Finally, the anti-bleach reagent Mowiol was added, and samples were analyzed using a MRC1024 confocal microscope (Bio-Rad).
It was recently shown that DC-SIGN is an antigen uptake receptor, facilitating phagocytosis within minutes (Engering et al., 2002). In order to determine whether DC-SIGN contributes also to the internalization of C. albicans by immature DC, experiments were performed allowing DC to interact with FITC-labeled Candida for 60 minutes at 37° C. to allow phagocytosis. […]

[3] = system: immature dendritic cells (imDC); test: Binding of C. albicans to immature monocyte-derived dendritic cells in the presence of blocking agents, flow cytometry; assay type: cell-based, human; details: for Inhibition of binding of Candida to imDC at ratios 1:2, 1:5 and 1:10 (FIG. 3D): imDC:C. albicans 1:2, 1:5, 1:10; for Inhibition of imDC/Candida binding (FIG. 5): panel of possible inhibitors, buffer TSA as control
Protocol: as §1, §2, §3
In an attempt to establish the contribution of both the mannose receptor and DC-SIGN, immature DC were incubated with specific inhibitors before interacting with C. albicans. Immature monocyte derived dendritic cells (50×10^3), which were CD45APC labeled, were incubated with heat-inactivated Candida (500×10^3) in the absence or presence of AZN-D1 and AZN-D3, anti-DC-SIGN mAb (20 μg/mL each), mannose (100 mM), and EGTA (5 mM).

[4] = molecular target: T2, Activated Leukocyte Cell Adhesion Molecule ALCAM (UniProt Q13740 28-583, limits assumed); test: fluorescent beads adhesion assay, flow cytometry, K562 transfectants
T2 construct: whole, on cells; also called K-ALCAM (K562 cells transfected with ALCAM)
T2 sequence (looked up): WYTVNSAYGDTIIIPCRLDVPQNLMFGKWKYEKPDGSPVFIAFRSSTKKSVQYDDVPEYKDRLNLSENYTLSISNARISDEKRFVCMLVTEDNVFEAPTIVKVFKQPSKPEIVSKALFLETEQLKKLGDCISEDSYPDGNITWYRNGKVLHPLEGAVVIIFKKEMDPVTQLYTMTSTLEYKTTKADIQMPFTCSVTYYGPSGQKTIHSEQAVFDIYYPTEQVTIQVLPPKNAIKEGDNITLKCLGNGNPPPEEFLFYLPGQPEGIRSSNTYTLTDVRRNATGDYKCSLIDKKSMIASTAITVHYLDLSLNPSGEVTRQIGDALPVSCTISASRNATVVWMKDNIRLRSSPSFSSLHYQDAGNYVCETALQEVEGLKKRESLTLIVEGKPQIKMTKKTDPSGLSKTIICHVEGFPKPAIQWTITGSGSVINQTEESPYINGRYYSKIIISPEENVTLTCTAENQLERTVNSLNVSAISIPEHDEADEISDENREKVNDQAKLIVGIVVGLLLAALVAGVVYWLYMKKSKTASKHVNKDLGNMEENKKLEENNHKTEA
Protocol: In inhibition studies, the bead adhesion assay was performed in the presence of 0.3 mg/mL mannan, 5 mM EGTA, or 20 μg/mL antibodies against DC-SIGN or ALCAM.
The erythroleukemic cell line K562 transfectants stably expressing DC-SIGN (K-SIGN) (Geijtenbeek et al., 2000a) were used to investigate the potential of *C. albicans* to bind DC-SIGN in the absence of any other known *C. albicans*, receptors.

O=C(O)CN(CCOCCOCCN(CC(=O)O)CC(=O)O)CC(=O)O [EGTA]
Inhibition of binding of C. albicans by K-SIGN (FIG. 1C) (DC-SIGN [1]; AZN-D1 20 μg/mL, EGTA 5 mM): abrogates binding | Inhibition of binding of C. albicans to K562 cells transfected with wild-type DC-SIGN (FIG. 1F) (DC-SIGN [1]): prevented the binding | Inhibition of binding of live and heat-killed (56° C. or 100° C.) yeast forms of C. albicans by DC-SIGN (FIG. 2) (DC-SIGN [1]; K-SIGN, live and heat-inactivated yeast): inhibited | Inhibition of binding of conidiae and hyphae to K-SIGN cells (FIG. 6) (DC-SIGN [2]; C. albicans strains V13-12, V15-31, V18-17, C. dubliniensis strains V18-13, 4247, 3588): inhibited | Blocking of phagocytosis of Candida by immature DC (immature DC): almost completely blocked phagocytosis | Blocking of binding of C. albicans to immature DC, in words (FIG. 3B) ([3]; EGTA 5 mM, heat-inactivated Candida): most effective blocking agent | Inhibition of binding of Candida to imDC at ratios 1:2, 1:5 and 1:10 (FIG. 3D) [3]: largely eliminated binding | Inhibition of imDC/Candida binding (FIG. 5) [3]: inhibited binding to a large degree

Mannan
Inhibition of binding of Candida to imDC at ratios 1:2, 1:5 and 1:10 (FIG. 3D) [3]: did not block the binding | Inhibition of imDC/Candida binding (FIG. 5) [3]: only minor effects

C[C@H](O)[C@@H](O)[C@@H](O)[C@H](O)C=O [fucose, L-fucose]
Inhibition of binding of C. albicans to K562 cells transfected with wild-type DC-SIGN (FIG. 1F) (DC-SIGN [1]): some inhibition | Inhibition of binding of Candida to imDC at ratios 1:2, 1:5 and 1:10 (FIG. 3D) [3]: greater inhibitory effects | Inhibition of imDC/Candida binding (FIG. 5) [3]: inhibited binding to a large degree

β-1,2-oligomannoside
Inhibition of imDC/Candida binding (FIG. 5) [3]: greatly inhibited binding

O=C(O)CN(CCN(CC(=O)O)CC(=O)O)CC(=O)O [EDTA]
Inhibition of binding of various Candida species and Aspergillus fumigatus to K-SIGN cells (FIGS. 8A-F) (DC-SIGN [2]; conidiae and hyphae, all cases except possibly C. tropicalis and C. parapsilosis (very low binding)): inhibited

laminarin
Blocking of C. albicans binding on immature monocyte derived DC (β2-integrin / Dectin-1 interference) [3]: did not show any block | Inhibition of imDC/Candida binding (FIG. 5) [3]: only minor effects

B1: ICAM-3-Fc (Fc fusion, UniProt P32942 30-485, looked up)
chain: QEFLLRVEPQNPVLSAGGSLFVNCSTDCPSSEKIALETSLSKELVASGMGWAAFNLSNVTGNSRILCSVYCNGSQITGSSNITVYRLPERVELAPLPPWQPVGQNFTLRCQVEDGSPRTSLTVVLLRWEEELSRQPAVEEPAEVTATVLASRDDHGAPFSCRTELDMQPQGLGLFVNTSAPRQLRTFVLPVTPPRLVAPRFLEVETSWPVDCTLDGLFPASEAQVYLALGDQMLNATVMNHGDTLTATATATARADQEGAREIVCNVTLGGERREARENLTVFSFLGPIVNLSEPTAHEGSTVTVSCMAGARVQVTLDGVPAAAPGQPAQLQLNATESDDGRSFFCSATLEVDGEFLHRNSSVQLRVLYGPKIDRATCPQHLKWKDKTRHVLQCQARGNPYPELRCLKEGSSREVPVGIPFFVNVTHNGTYQCQASSSRGKYTLVVVMDIEAGSSH
notes: Coated on carboxylate-modified TransFluorSpheres; also called ICAM-3-Fc coated beads; ICAM-3 fluorescent beads; not shown: Fc part
binding result [4]: no binding
